How the values were obtained:
HepG2 [1] = assay: Cytotoxicity against human HepG2 cells assessed as surviving fraction ratio at 50 uM after 48 hrs by SRB assay relative to control; type: functional
HepG2 [2] = assay: Cytotoxicity against human HepG2 cells assessed as surviving fraction ratio at 12.5 uM after 48 hrs by SRB assay relative to control; type: functional
HepG2 [3] = assay: Cytotoxicity against human HepG2 cells assessed as surviving fraction ratio after 48 hrs by SRB assay relative to control; type: functional, cell-based
HepG2 [4] = assay: Cytotoxicity against human HepG2 cells assessed as surviving fraction ratio at 5 uM after 48 hrs by SRB assay relative to control; type: functional
HepG2 [5] = assay: Cytotoxicity against human HepG2 cells assessed as surviving fraction ratio at 25 uM after 48 hrs by SRB assay relative to control; type: functional
HepG2 [6] = assay: Cytotoxicity against human HepG2 cells assessed as surviving fraction ratio at 5 uM incubated for 2 hrs prior to 8Gy gamma-irradiation measured after 48 hrs by ELISA reader relative to control; type: functional
HepG2 [7] = assay: Cytotoxicity against human HepG2 cells assessed as surviving fraction ratio incubated for 2 hrs prior to 8Gy gamma-irradiation measured after 48 hrs by ELISA reader relative to control; type: functional, cell-based; conditions: HepG2, light or radiation study
HepG2 [8] = assay: Cytotoxicity against human HepG2 cells assessed as surviving fraction ratio at 12.5 uM incubated for 2 hrs prior to 8Gy gamma-irradiation measured after 48 hrs by ELISA reader relative to control; type: functional
HepG2 [9] = assay: Cytotoxicity against human HepG2 cells assessed as surviving fraction ratio at 50 uM incubated for 2 hrs prior to 8Gy gamma-irradiation measured after 48 hrs by ELISA reader relative to control; type: functional
HepG2 [10] = assay: Cytotoxicity against human HepG2 cells assessed as surviving fraction ratio at 25 uM incubated for 2 hrs prior to 8Gy gamma-irradiation measured after 48 hrs by ELISA reader relative to control; type: functional
[11] = Homo sapiens, HepG2, 48 h, read-out: IC50

| SMILES | Ratio (HepG2 [1]) | Ratio (HepG2 [2]) | IC50 (HepG2 [3]; hepg2) | Ratio (HepG2 [4]) | Ratio (HepG2 [5]) | IC50 (HepG2 [3]; [11]) | Ratio (HepG2 [6]) | IC50 (HepG2 [7]) | Ratio (HepG2 [8]) | Ratio (HepG2 [9]) | Ratio (HepG2 [10]) |
| --- | --- | --- | --- | --- | --- | --- | --- | --- | --- | --- | --- |
| Cc1ccc(S(=O)(=O)Nc2ccc(C(=O)/C=C/c3ccccc3)cc2)cc1 | 0.529 | 2.032 | Not Active | 2.385 | 1.017 | – | – | – | – | – | – |
| CC(=O)c1ccc(NS(=O)(=O)c2ccc(C)cc2)cc1 | 0.367 | 0.726 | – | 1.048 | 0.547 | 35.8 µM | – | – | – | – | – |
| CC(=O)c1ccc(NS(=O)(=O)c2ccccc2)cc1 | 0.417 | 0.719 | – | 0.891 | 0.464 | 35.3 µM | – | – | – | – | – |
| Cc1ccc(S(=O)(=O)Nc2ccc(C(=O)/C=C/c3ccc([N+](=O)[O-])cc3)cc2)cc1 | 0.495 | 0.348 | – | 0.476 | 0.392 | 26 µM | 0.558 | 20.5 µM | 0.451 | 0.249 | 0.368 |
| C/C(=N\NC(=O)CC#N)c1ccc(NS(=O)(=O)c2ccccc2)cc1 | 0.242 | 0.778 | – | 0.881 | 0.361 | 28 µM | – | – | – | – | – |
| C/C(=N\NC(=O)CC#N)c1ccc(NS(=O)(=O)c2ccc(C)cc2)cc1 | 0.293 | 0.53 | – | 0.837 | 0.349 | 26 µM | – | – | – | – | – |
| C/C(=N/n1c(N)cc(N)c(C#N)c1=O)c1ccc(NS(=O)(=O)c2ccccc2)cc1 | 0.321 | 0.556 | – | 0.748 | 0.312 | 25.5 µM | 0.395 | 11.5 µM | 0.194 | 0.34 | 0.299 |
| C/C(=N\n1c(N)cc(N)c(C#N)c1=O)c1ccc(NS(=O)(=O)c2ccc(C)cc2)cc1 | 0.385 | 0.761 | – | 0.937 | 0.577 | 37 µM | – | – | – | – | – |
| C/C(=N\NC(=O)c1sc(N)c(C#N)c1N)c1ccc(NS(=O)(=O)c2ccccc2)cc1 | 0.274 | 0.456 | – | 0.869 | 0.239 | 23.3 µM | 0.526 | 18.3 µM | 0.386 | 0.322 | 0.253 |
| C/C(=N\NC(=O)c1sc(N)c(C#N)c1N)c1ccc(NS(=O)(=O)c2ccc(C)cc2)cc1 | 0.323 | 0.383 | – | 0.571 | 0.39 | 21.8 µM | 0.291 | 5.8 µM | 0.227 | 0.174 | 0.105 |
| C/C(=N/NC(=O)/C(C#N)=C/N(C)C)c1ccc(NS(=O)(=O)c2ccc(C)cc2)cc1 | 0.378 | 0.877 | – | 1.141 | 0.546 | 37.8 µM | – | – | – | – | – |
| C/C(=N/NC(=O)C(C#N)C(=S)S)c1ccc(NS(=O)(=O)c2ccc(C)cc2)cc1 (stereo not given) | 0.414 | 0.229 | – | 0.344 | 0.291 | 11 µM | 0.245 | 5 µM | 0.206 | 0.158 | 0.189 |
| C/C(=N/NC(=O)c1sc2c(c1N)CCCC2)c1ccc(NS(=O)(=O)c2ccc(C)cc2)cc1 | 0.277 | 0.528 | – | 0.868 | 0.331 | 25.5 µM | 0.521 | 20 µM | 0.524 | 0.229 | 0.329 |
| COc1ccc(-c2c(C#N)c(N)n(/N=C(/C)c3ccc(NS(=O)(=O)c4ccc(C)cc4)cc3)c(=O)c2C#N)cc1 | 0.375 | 0.696 | – | 0.984 | 0.363 | 31.8 µM | – | – | – | – | – |
| C/C(=N/n1c(N)c(C#N)c(-c2ccc([N+](=O)[O-])cc2)c(C#N)c1=O)c1ccc(NS(=O)(=O)c2ccc(C)cc2)cc1 | 0.408 | 0.635 | – | 0.951 | 0.331 | 31.5 µM | 0.439 | 23.5 µM | 0.603 | 0.352 | 0.345 |
| Cc1ccc(/C=C/C(=O)c2ccc(NS(=O)(=O)c3ccc(C)cc3)cc2)cc1 | 0.489 | 1.616 | – | 1.931 | 0.781 | 49.8 µM | – | – | – | – | – |
| Cc1ccc(S(=O)(=O)Nc2ccc(C(=O)/C=C/c3ccc(F)cc3)cc2)cc1 | 0.551 | 0.497 | – | 1.461 | 0.383 | 39.3 µM | – | – | – | – | – |
| Cc1ccc(S(=O)(=O)Nc2ccc(C(=O)/C=C/c3ccc(Cl)cc3)cc2)cc1 | 0.402 | 1.478 | – | 2.16 | 0.591 | 43.3 µM | – | – | – | – | – |
| Cc1ccc(S(=O)(=O)Nc2ccc(C(=O)/C=C/c3ccc(Br)cc3)cc2)cc1 | 0.445 | 0.505 | – | 0.584 | 0.43 | 30.3 µM | 0.591 | 26.8 µM | 0.471 | 0.408 | 0.394 |
| Cc1ccc(S(=O)(=O)Nc2ccc(C(/C=C/c3ccc([N+](=O)[O-])cc3)=N\O)cc2)cc1 | 0.632 | 1.769 | Not Active | 1.723 | 1.351 | – | – | – | – | – | – |
| Cc1ccc(S(=O)(=O)Nc2ccc(-c3cc(-c4ccc([N+](=O)[O-])cc4)[nH]n3)cc2)cc1 | 0.508 | 1.197 | – | 1.772 | 0.522 | 44.8 µM | – | – | – | – | – |
| Cc1ccc(S(=O)(=O)Nc2ccc(-c3cc(-c4ccc([N+](=O)[O-])cc4)n(-c4ccccc4)n3)cc2)cc1 | 0.536 | 1.841 | Not Active | 2.085 | 0.923 | – | – | – | – | – | – |
| Cc1ccc(S(=O)(=O)Nc2ccc(-c3cc(-c4ccc([N+](=O)[O-])cc4)n(C(N)=S)n3)cc2)cc1 | 0.5 | 1.759 | Not Active | 1.907 | 1.078 | – | – | – | – | – | – |
| Cc1ccc(S(=O)(=O)Nc2ccc(-c3cc(-c4ccc([N+](=O)[O-])cc4)n(C(=S)NN)n3)cc2)cc1 | 0.53 | 1.189 | – | 1.766 | 0.507 | 45.3 µM | – | – | – | – | – |
| Cc1ccc(S(=O)(=O)Nc2ccc(-c3cc(-c4ccc([N+](=O)[O-])cc4)[nH]c(=O)n3)cc2)cc1 | 0.481 | 0.95 | – | 1.619 | 0.732 | 46.3 µM | – | – | – | – | – |
| Cc1ccc(S(=O)(=O)Nc2ccc(-c3cc(-c4ccc([N+](=O)[O-])cc4)[nH]c(=S)n3)cc2)cc1 | 0.398 | 0.805 | – | 1.066 | 0.486 | 36.5 µM | – | – | – | – | – |

Reference: ChEMBL document CHEMBL3407449, “Synthesis, anticancer and radiosensitizing evaluation of some novel sulfonamide derivatives” (Eur J Med Chem, 2015)
